US7998681B2, “Diagnosis and therapy of antibody-mediated inflammatory auto-immune disorders” (Los Angeles Biomedical Research Institute at Harbor-UCLA …, priority 2000, dated 2011)

How the values were obtained:
[1] = tested on: IL-16; experiment: IL-16 ELISA of medium from treated fibroblasts, normal donors; format: cell-based, human; settings: limit of detection 20 pg/ml
From the text: In addition to its therapeutic aspects, the present invention also relates to a diagnostic method for detecting the presence of antibody-activated fibroblasts in the patient. Applicants believe that several auto immune diseases or disorders are associated with antibody-activated fibroblasts. Applicants have shown that increased activation of fibroblasts by auto-antibodies can be monitored by determining the levels of IL-16 and/or RANTES production in a patient. Altered levels of these chemoattractants can be detected in various biological samples in mammals, preferably humans. Levels of IL-16 and/or RANTES may be monitored in a patient, using standard techniques, as an indication of the deleterious aspects of the disease condition. Biological samples, including but not limited to serum, vitreous humor, aqueous humor, synovial fluid, and tissue, will be drawn from the patient using standard techniques. Particularly preferred are serum samples. The measurement of the IL-16 and RANTES levels may be monitored using any method possible to detect the levels of these proteins in biological samples. A preferred method of analysis is by ELISA as described in Sciaky, D. et al., J. Immunol. 164(7):3806-14, 2000. An ELISA specific for IL-16 can be used to assess the levels released by fibroblasts as described previously in Lim, K. G. et al., J. Immunol. 156(7): 2566-70, 1996. An ELISA specific for RANTES can be used according to the manufacturer's specification (BioSource Intl., Camarillo, Calif.).
The levels of IL-16 and RANTES were then assessed with specific ELISAs. The ELISA assay for IL-16 is performed essentially as discussed in Sciaky D., Brazer, W., Center, D. M., Cruikshank, W. W. and Smith, T. J.: Cultured human fibroblasts express constitutive IL-16 mRNA: Cytokine induction of active IL-16 protein synthesis through a caspase-3-dependent mechanism. J. Immunol. 164(7):3806-14, 2000). An ELISA (BioSource) for RANTES was performed according to the manufacturer's instructions. In an analysis of over a dozen strains, TAO specific IgG elicit substantial induction of IL-16 and RANTES and in no case were normal fibroblasts so affected.

[2] = tested on: fibroblasts from individuals without known thyroid disease; experiment: T lymphocyte migration (chemotaxis) assay of conditioned medium from treated fibroblasts, normal donors; format: cell-based, human; settings: IgG 100 ng/ml, IL-1β 10 ng/ml, 24 hours
Protocol: The general migration assay is described in detail in Sciaky, D., et al., “Cultured human fibroblasts express constitutive IL-16 mRNA: Cytokine induction of active IL-16 protein synthesis through a caspase-3-dependent mechanism,” J. Immunol. 164(7):3806-14 (2000), hereby incorporated fully by reference. Briefly, fibroblasts from TAO and normal orbital tissue were seeded in 24-well arrays and grown to confluence. Monolayers were shifted containing 1% FBS to which nothing, purified normal or TAO IgG was added for various time intervals. Medium was collected and stored until use at −80° C. Chemotaxis was examined using Boyden chambers to which NWNA-T lymphocytes were added as the cellular targets. 50 μl cell suspension (10^7 cells/ml) were placed in the upper compartments of 48-well micro-chemotaxis chambers separated from 32 μl of serum samples by 8 μm micropore nitrocellulose filters (Neuroprobe). These were incubated at 37° C. in 5% CO2 environment for 3 hr. Filters were fixed, stained with hematoxylin, dehydrated, mounted on glass slides and viewed by light microscopy. Lymphocyte migration was quantified by counting the total number of cells migrating beyond a fixed depth. This depth was set to routinely identify a baseline migration under control conditions of 10-15 cells per high power field. Five such fields were counted in duplicate for each sample and the means±SD were calculated and expressed as percentage values of baseline cell migration in control buffer alone (100%). For each set of experimental conditions, at least three separate determinations were performed. Differences between experimental groups were analyzed by the Student t test using absolute values obtained for lymphocyte migration and statistical difference was accepted at the 95% level of confidence.
To assess specificity for IL-16, experiments were conducted by incubating samples of culture media for 15 min with neutralizing concentrations of anti-IL-16 MAB (clone 14. 1, 10 μg/ml), which blocks the chemotactic activity of 50 ng/ml of rIL-16. Anti-RANTES MAB (5 μg/ml) having an ND50 of 200 ng/ml rRANTES was used to neutralize RANTES as described in Sciaky D., Brazer, W., Center, D. M., Cruikshank, W. W. and Smith, T. J.: Cultured human fibroblasts express constitutive IL-16 mRNA: Cytokine induction of active IL-16 protein synthesis through a caspase-3-dependent mechanism. J. Immunol. 164(7):3806-14, 2000).
Referring to FIGS. 3A-3C, serum concentrations of IL-16 are elevated in patients with active TAO. Moreover, both IL-16 and PGHS-2 protein can be detected in TAO orbital tissue. The concentration of IL-16 is determined in sera from either patients with Graves' disease or normal controls. The sera are subjected to an ELISA assay, which utilizes an anti-IL-16 specific antibody. IL-16 is detected by standard immunohistochemical techniques in thin sections harvested from affected orbital connective tissues from a patient with severe Graves' ophthalmopathy. In a separate measurement of IL-16 dependent T-cell migration, a panel of 11 different fibroblast strains from patients with Graves' disease and 5 from individuals without known thyroid disease were challenged with Graves' IgG (100 ng/ml), normal IgG (100 ng/ml) or IL-1β (10 ng/ml) for 24 hours and assessed for T cell migration activity and IL-16 production (Table II). Graves' IgG induced IL-16 dependent cell migration in 10 of the Graves' fibroblast strains which derived from orbit and skin from various anatomic regions. Included were strains from the pretibial skin as well as the abdominal wall and the neck. The latter two sites rarely manifest Graves' disease. A substantial fraction of Graves' IgG provoked T cell migration activity in most of these strains was resistant to neutralization with anti-IL-16. Similarly, chemoattractants produced by RA fibroblasts can be measured by T-cell migration. […]

## IL-1β: pro-inflammatory cytokine used to activate fibroblasts
[1]; strain 12, Orbit
  IL-16: 56 ± 10 pg/mL
[1]; strain 14, Orbit
  IL-16: 68 ± 9 pg/mL
[1]; strain 15, Extremity Skin
  IL-16: 138 ± 15 pg/mL
[1]; strain 16, Extremity Skin
  IL-16: 98 ± 19 pg/mL
[2]; strain 12, Orbit
  T Cell Migration (% control): 168 +/− 11 % control
  T Cell Migration +anti-IL-16: 143 +/− 9 % control
  T Cell Migration +anti-RANTES: 156 +/− 9 % control
[2]; strain 14, Orbit
  T Cell Migration (% control): 189 +/− 10 % control
  T Cell Migration +anti-IL-16: 154 +/− 8 % control
  T Cell Migration +anti-RANTES: 159 +/− 9 % control
[2]; strain 15, Extremity Skin
  T Cell Migration (% control): 197 ± 10 % control
  T Cell Migration +anti-IL-16: 153 ± 9 % control
  T Cell Migration +anti-RANTES: 172 ± 9 % control
[2]; strain 16, Extremity Skin
  T Cell Migration (% control): 201 ± 7 % control
  T Cell Migration +anti-IL-16: 155 ± 8 % control
  T Cell Migration +anti-RANTES: 173 ± 7 % control
